Results on 36 compounds are retold here after patent publication US9827315B2, “Compositions of pharmaceutical actives containing diethylene glycol monoethyl ether or other alkyl derivatives” (THEMIS MEDICARE LIMITED, priority 2013, dated 2017).

Values after ≈ are worked out from the molar mass of the structure shown.

Assay in one series: not given
As to conditions: at 22° C.; cited from earlier work.
As to `NC(Cc1ccc(N(CCCl)CCCl)cc1)C(=O)O` (centres unmarked) [Melphalan], the “solubility (solvent not given)” value is reported as < 0.1 g/100 mL.

Staying with this series, now noted: at 25° C.; cited from earlier work.
As to `CC(=O)S[C@@H]1CC2=CC(=O)CC[C@]2(C)[C@H]2CC[C@@]3(C)[C@@H](CC[C@@]34CCC(=O)O4)[C@H]12` [Spironolactone, 17-hydroxy-7α-mercapto-3-oxo-17α-pregn-4-ene-21-carboxylic acid, γ-lactone acetate], the solubility in water result is “about 22 mg/L”.

Staying with this series, now noted: at pH 6.5; cited from earlier work.
As to `Brc1c(NC2=NCCN2)ccc2nccnc12` [Brimonidine tartarate], the solubility in water is on record as 34 mg/mL (≈ 116 mM).

The series is the same for the next values; noted with them: cited from earlier work.
On to `Cl.N[C@@H]1CCCCN(c2c(F)cc3c(=O)c(C(=O)O)cn(C4CC4)c3c2Cl)C1` [Besifloxacin], for which the “solubility in DMSO” value was “Sparingly soluble in methanol, Sparingly soluble in water (1 mg/mL), DMSO (<1 mg/mL)” and the solubility in water entry is recorded as “Sparingly soluble in methanol, Sparingly soluble in water (1 mg/mL), DMSO (<1 mg/mL)”.

With `Cc1ccc(-c2ncc(Cl)cc2-c2ccc(S(C)(=O)=O)cc2)cn1` [Etoricoxib, 5-chloro-6′-methyl-3-[4-(methylsulfonyl)phenyl]-2,3′-bipyridine], the solubility in water result is reported as “about 3.3 mg/L”.

Staying with this series, now noted: water; cited from earlier work.
On to `C[C@]12CC[C@@H]3c4ccc(O)cc4C[C@@H](CCCCCCCCC[S+]([O-])CCCC(F)(F)C(F)(F)F)[C@H]3[C@@H]1CC[C@@H]2O` (stereo partly drawn) [Fulvestrant, 7-alpha-[9-(4,4,5,5,5-pentafluoropentylsulphinyl)nonyl]estra-1,3,5-(10)-triene-3,17beta-diol], for which the “Solubility in water (descriptive)” value is “practically insoluble”.

For `CO[C@H]1O[C@@H]2O[C@@]3(C)CC[C@H]4[C@H](C)CC[C@@H]([C@H]1C)[C@@]24OO3` [Artemether, (+)-(3-alpha,5a-beta,6-beta,8a-beta, 9-alpha,12-beta,12aR)-decahydro-10-methoxy-3,6,9-trimethyl-3,12-epoxy-12H-pyrano(4,3-j)-1,2-benzodioxepin], the “Solubility in water (descriptive)” value is recorded as “practically insoluble”.

Consider `CN(C/C=C/C#CC(C)(C)C)Cc1cccc2ccccc12` [Terbinafine, [(2E)-6,6-dimethylhept-2-en-4-yn-1-yl](methyl)(naphthalen-1-ylmethyl)amine], for which the “Solubility in water (descriptive)” value is given as “slightly soluble”.

For `CCN1CCCC1CNC(=O)c1cc(S(=O)(=O)CC)c(N)cc1OC` (centres unmarked) [Amilsulpride], the “Solubility in water (descriptive)” value is “Practically insoluble in water, sparingly soluble in ethanol, soluble in methanol and freely soluble in dichloromethane”.

`CCC(=O)O[C@]1(C(=O)SCF)[C@H](C)C[C@H]2[C@@H]3C[C@H](F)C4=CC(=O)C=C[C@]4(C)[C@@]3(F)[C@@H](O)C[C@@]21C` [Fluticasone Propionate]: the “Solubility in water (descriptive)” value is “It is practically insoluble in water, freely soluble in dimethyl sulfoxide and dimethylformamide, and slightly soluble in methanol and 95% ethanol. Solubility in Diethylene glycol monoethyl ether is 14.7 mg/ml”.

Turning to `CC1=C(C/C=C(\C)CCC[C@H](C)CCC[C@H](C)CCCC(C)C)C(=O)c2ccccc2C1=O` [Phytomenadione, 2-methyl-3-phytyl-1,4-naphthoquinone], the “Solubility in water (descriptive)” value is given as “insoluble”.

As for `CC1=C(/C=C/C(C)=C/C=C/C(C)=C/C(=O)O)C(C)(C)CCC1` [Tretinoin], the “Solubility in water (descriptive)” value is reported as “Insoluble in water”.

Turning to `CCN(CC)CCOC(=O)C1(C2CCCCC2)CCCCC1` [Dicyclomine Hydrocloride, Dicyclomine], the “Solubility in water (descriptive)” value is given as “soluble”.

Take Rimexolone: the “Solubility in water (descriptive)” value was “Very slightly soluble in water; freely soluble in chloroform; soluble in ethyl acetate and in methanol”.

As for `CCC(C)n1ncn(-c2ccc(N3CCN(c4ccc(OC[C@H]5CO[C@](Cn6cncn6)(c6ccc(Cl)cc6Cl)O5)cc4)CC3)cc2)c1=O` (mixture of isomers) [Itraconazole], the “Solubility in water (descriptive)” value is “Soluble in organic solvents such as DMSO and dimethyl formamide. Insoluble in water”.

As for “(3R,4S,5S,6R,7R,9R,11R,12R,13S,14R)-4-[(2,6-Dideoxy-3-C-methyl-3-O-methyl-a-L-ribo-hexopyranosyl)oxy]-14-ethyl-12,13-dihydroxy-7-methoxy-3,5,7,9,11,13-hexamethyl-6-[[3,4,6-trideoxy-3-(dimethylamino)-b-D-xylo-hexopyranosyl]oxy]oxacyclotetradecane-2,10-dione [Clarithromycin]”, the “Solubility in water (descriptive)” value was “insoluble”.

`C[C@H](CS)C(=O)N1CCC[C@H]1C(=O)O` [Captopril, (2S)-1-[(2S)-2-methyl-3-sulfanylpropanoyl]pyrrolidine-2-carboxylic acid]: the “Solubility in water (descriptive)” value was “easily soluble”.

With `COC(=O)C1=C(C)NC(C)=C(C(=O)OC2CCN(Cc3ccccc3)C2)[C@H]1c1cccc([N+](=O)[O-])c1.Cl` (stereo in doubt) [Barnidipine Hydrochloride, 3-(3R)-1-benzylpyrrolidin-3-yl 5-methyl 2,6-dimethyl-4-(3-nitrophenyl)-1,4-dihydropyridine-3,5-dicarboxylate], the “Solubility in water (descriptive)” value is given as “insoluble”.

For `CC(=O)OCC(=O)[C@@]1(O)CC[C@H]2[C@@H]3CCC4=CC(=O)C=C[C@]4(C)[C@H]3[C@@H](O)C[C@@]21C` [Prednisolone acetate, 11β,17,21-Trihydroxypregna-1,4-diene-3,20-dione 21-acetate], the “Solubility in water (descriptive)” value is given as “practically insoluble”.

In the case of `CC(=O)O[C@]1(C(C)=O)CC[C@H]2C3C[C@H](C)C4=CC(=O)C=CC4(C)[C@@]3(F)[C@@H](O)CC21C` (some centres unmarked) [Flurometholone Acetate], the “Solubility in water (descriptive)” value was “Freely soluble in chloroform and acetone, soluble in ethanol, very slightly soluble in water”.

`C=CC[C@]1(O)CC[C@H]2[C@@H]3CCC4=CCCC[C@@H]4[C@H]3CC[C@@]21C` [Allyoestrenol, (17β)-17-(prop-2-en-1-yl)estr-4-en-17-ol]: the “Solubility in water (descriptive)” value is given as “practically insoluble”.

As for Tacrolimus, the “Solubility in water (descriptive)” value is “Insoluble in water, freely soluble in ethanol, and very soluble in methanol and chloroform”.

In the case of `O=C(O)COC(=O)Cc1ccccc1Nc1c(Cl)cccc1Cl` [Aceclofenac, 2-[2-[2-[(2,6-dichlorophenyl)amino]phenyl]acetyl]oxyacetic acid], the “Solubility in water (descriptive)” value is recorded as “practically insoluble”.

As to `CC(=O)O[C@]1(C(C)=O)CC[C@H]2[C@@H]3C[C@H](C)C4=CC(=O)CC[C@]4(C)[C@H]3CC[C@@]21C` [MPA, 17α-hydroxy-6α-methylpregn-4-ene-3,20-dione acetate], the “Solubility in water (descriptive)” value was “insoluble”.

Turning to `C#C[C@]1(OC(=O)CCCCCC)CC[C@H]2[C@@H]3CCC4=CC(=O)CC[C@@H]4[C@H]3CC[C@@]21C` [Norethisterone enantate, 17alpha-Ethynyl-19-nortestosterone 17-heptanoate], the “Solubility in water (descriptive)” value was “practically insoluble”.

Turning to `CCCC(=O)O[C@]1(C(=O)COC(C)=O)CC[C@H]2[C@@H]3C[C@H](F)C4=CC(=O)C=C[C@]4(C)[C@@]3(F)[C@@H](O)C[C@@]21C` [Difluprednate], the “Solubility in water (descriptive)” value is “Very low solubility in water”.

Take `CCCCCCCCCC(=O)O[C@H]1CC[C@H]2[C@@H]3CCC4=CC(=O)CC[C@@H]4[C@H]3CC[C@]12C` [Nandrolone Decoanate, Estr-4-en-3-one,17-[(1-oxodecyl)oxy]-,(17b)-]: the “Solubility in water (descriptive)” value was “practically insoluble”.

Take `OC(Cn1cncn1)(Cn1cncn1)c1ccc(F)cc1F` [Fluconazole, 2-(2,4-difluorophenyl)-1,3-bis(1H-1,2,4-triazol-1-yl)propan-2-ol]: the “Solubility in water (descriptive)” value is “very slightly soluble”.

For the compound `Cc1c(OCC(F)(F)F)ccnc1C[S@@+]([O-])c1nc2ccccc2[nH]1` [Dexlansoprazole, (R)-(+)2-([3-methyl-4-(2,2,2-trifluoroethoxy)pyridin-2-yl]methylsulfinyl)-1H-benzo[d]imidazole], the “Solubility in water (descriptive)” value is given as “very slightly soluble”.

As to `C#C[C@]1(O)CC[C@H]2[C@@H]3CCc4cc(O)ccc4[C@H]3CC[C@@]21C` [Ethinyl estradiol, 19-nor-17α-pregna-1,3,5(10)-trien-20-yne-3,17-diol], the “Solubility in water (descriptive)” value was “practically insoluble”.

On to `CN1CC(=O)N2[C@H](c3ccc4c(c3)OCO4)c3[nH]c4ccccc4c3C[C@@H]2C1=O` [Tadalafil], for which the “Solubility in water (descriptive)” value is “Insoluble in water and very slightly soluble in ethanol”.

On to `CC1(C)O[C@@H]2C[C@H]3[C@@H]4CCC5=CC(=O)C=C[C@]5(C)[C@@]4(F)[C@@H](O)C[C@]3(C)[C@]2(C(=O)CO)O1` [Triamcinolone Acetonide, 9-Fluoro-11β,16α,17,21-tetrahydroxypregna-1,4-diene-3,20-dione cyclic 16,17acetal with acetone], for which the “Solubility in water (descriptive)” value is on record as “practically insoluble”.

Consider “(3R,4S,5S,6R,7R,9R,11S,12R,13S,14S)-6-{[(2S,3R,4S,6R) -4-(dimethylamino)-3-hydroxy-6-methyloxan-2-yl]oxy}-14-ethyl-12,13-dihydroxy-4-{[(2R,4S,5S,6S)-5-hydroxy-4-methoxy-4,6-dimethyloxan-2-yl]oxy}-7-methoxy-3,5,7,9,11,13-hexamethyl-1-oxacyclotetradecane-2,10-dione [Azithromycin]”, for which the “Solubility in water (descriptive)” value is “practically insoluble”.

With `COCCOC(=O)C1=C(C)NC(C)=C(C(=O)OC(C)C)C1c1cccc([N+](=O)[O-])c1` (centres unmarked) [Nimodipine], the “Solubility in water (descriptive)” value is given as “Soluble in methanol. Insoluble in water in beta cyclodextrin”.

Another series can be described thus: Solubility of pharmaceutical actives in Diethylene glycol monoethyl ether.
Settings: not given
On to `COc1ccnc(C[S+]([O-])c2nc3ccc(OC(F)F)cc3[nH]2)c1OC` (centres unmarked) [Pantoprazole], for which the “Solubility in Diethylene Glycol Monoethyl Ether” value was determined as 80 mg/mL (≈ 209 mM).

The same series, now with this note: Diethylene glycol monoethyl ether, organic solvent or mixture, Solubility in Diethylene Glycol Monoethyl Ether.
By solubility is commonly meant how much of the substance goes into solution per volume. On to `C[C@]12CC[C@@H]3c4ccc(O)cc4C[C@@H](CCCCCCCCC[S+]([O-])CCCC(F)(F)C(F)(F)F)[C@H]3[C@@H]1CC[C@@H]2O` (stereo partly drawn) [Fulvestrant, 7-alpha-[9-(4,4,5,5,5-pentafluoropentylsulphinyl)nonyl]estra-1,3,5-(10)-triene-3,17beta-diol], for which the solubility was 58.8 mg/mL (≈ 96.9 mM).

As for `CO[C@H]1O[C@@H]2O[C@@]3(C)CC[C@H]4[C@H](C)CC[C@@H]([C@H]1C)[C@@]24OO3` [Artemether, (+)-(3-alpha,5a-beta,6-beta,8a-beta, 9-alpha,12-beta,12aR)-decahydro-10-methoxy-3,6,9-trimethyl-3,12-epoxy-12H-pyrano(4,3-j)-1,2-benzodioxepin], the solubility was determined as 100 mg/mL (≈ 335 mM).

On to `CN(C/C=C/C#CC(C)(C)C)Cc1cccc2ccccc12` [Terbinafine, [(2E)-6,6-dimethylhept-2-en-4-yn-1-yl](methyl)(naphthalen-1-ylmethyl)amine], for which the solubility is 16.7 mg/mL (≈ 57.2 mM).

With `CCN1CCCC1CNC(=O)c1cc(S(=O)(=O)CC)c(N)cc1OC` (centres unmarked) [Amilsulpride], the solubility worked out at 25 mg/mL (≈ 67.7 mM).

Consider `NC(=O)Cc1cccc(C(=O)c2ccccc2)c1N` [Nepafenac], for which the solubility is ≤ 2 mg/mL.
